Experimental data from patent US9296787B2, “Antitumor peptide and use thereof” (priority 2011, dated 2016).
Like-named read-outs stand apart in the source and are kept apart here. Positions of bridges follow the written chain, without caps; N, C: chain ends. Residues, ends and D or L forms follow the SMILES beside them. No end group written: not given here.

Assays:
[1] = tested on: human alveolar basal epithelial adenocarcinoma cells, A549; type: cell-based; conditions: for A450(-A620) After 24 hers: A549, peptide 50 μM, WST-8 absorbance after 24 hours; for antitumor activity (tumor cell proliferation-inhibiting activity), in words: A549, 50 μM, 24 hours, summary of Table 5
Description: (§1) As the tumor cells tested, a commercial mouse neuroblastoma cell line (N1E-115) was used. The cell line was cultured beforehand in a DMEM medium (i.e. Dulbecco MEM medium (DMEM medium, a Gibco product) containing 10% fetal bovine serum (FBS, a Gibco product), 2 mM of L-glutamine, 50 unit/mL of penicillin, and 50 μg/mL of streptomycin), and the number of cells per well in a 96-well plate was adjusted to approximately 5×10^3. The volume of the medium for this was 100 μL per well.
(§2) Subsequently, the stock solution of each sample peptide shown in Table 3 was added to each well to a peptide concentration in the well of 50 μM or 100 μM.
(§3) After the sample peptides were added as described above, the 96-well plate was placed in a CO2 incubator and cultured without agitation at 37° C. under 5% CO2. At the time of the peptide addition (at the start of treatment) and at 6 hours or 24 hours from the peptide addition and the start of incubation, the viability status of the cultured cells tested was analyzed with a commercial colorimetric assay kit. In particular, to each cell-culturing well, “water-soluble tetrazolium salt (WST-8)” was added as a colorimetric reagent; after two hours of incubation following the addition, the cell culture medium supplied with the colorimetric reagent was collected; and the level of inhibition of cell proliferation was evaluated by colorimetry, measuring the absorbance at a wavelength of 450 nm (values corrected with the absorbance at a wavelength of 620 nm, A450-A620) based on reduction of tetrazolium salt. Based on the absorbance at the time of the sample peptide addition (at the start of treatment), the percent decrease in the absorbance after 6 hours or 24 hours was determined as the cell proliferation inhibition rate (%).
Cells forming a […] (human alveolar basal epithelial adenocarcinoma cells, A549) were substituted for the tumor cells tested and the same test as Example 2 described above was carried out. In the present example, the peptides of Samples 1 to 13, 15 to 22, 24, 29, 35 and 40 were used.

[2] = tested on: mouse neuroblastoma cell line (N1E-115); type: cell-based; conditions: for A450(-A620) After 24 hers: WST-8 absorbance after 24 hours; for antitumor activity (tumor cell proliferation-inhibiting activity), in words: N1E-115, 50 or 100 μM, summary of Table 3
Description: Some of the sample peptides obtained in Example 1 were tested for antitumor activity against target cultured tumor cells. Details of the assay are as described below.
as §1, §2, §3

| Compound | A450(-A620) After 24 hers [1] | A450(-A620) After 24 hers ([2]; N1E-115, peptide 50 μM) | A450(-A620) After 24 hers ([2]; N1E-115, peptide 100 μM) | antitumor activity (tumor cell proliferation-inhibiting activity), in words [1] | antitumor activity (tumor cell proliferation-inhibiting activity), in words [2] |
| --- | --- | --- | --- | --- | --- |
| CC(C)C[C@@H]1NC(=O)[C@@H](N)CSSC[C@@H](C(=O)O)NC(=O)[C@H](CO)NC(=O)[C@H]([C@@H](C)O)NC(=O)[C@H](Cc2ccc(O)cc2)NC(=O)[C@H](CO)NC(=O)[C@H](CCCCN)NC(=O)[C@H]([C@@H](C)O)NC1=O [Sample 12, CLTKSYTSC] (H-CLTKSYTSC-OH; disulfide 1-9; N-terminus and C-terminus assumed) | 1.9165 |  |  |  |  |
| SLLPHSNHAKHY [Sample 19, SLLPHSNHAKHY] | 1.8271 |  |  |  |  |
| EFEYFHPATFRL [Sample 20, EFEYFHPATFRL] | 1.8115 | 0.5772 | 0.6481 |  |  |
| CC[C@H](C)[C@@H]1NC(=O)[C@H](CCC(=O)O)NC(=O)[C@@H](N)CSSC[C@@H](C(=O)N[C@@H](CCCCN)C(=O)N[C@@H](CCCCN)C(=O)N[C@@H](CCCNC(=N)N)C(=O)N[C@H](C(=O)N[C@@H](CC(C)C)C(=O)N[C@@H](CCCNC(=N)N)C(=O)N[C@@H](CCCCN)C(=O)N[C@@H](CC(N)=O)C(=O)N[C@@H](CC(=O)O)C(=O)N[C@@H](CCCNC(=N)N)C(=O)N[C@@H](CCCCN)C(=O)N[C@@H](CCCCN)C(=O)N[C@@H](CCCNC(=N)N)C(=O)O)[C@@H](C)O)NC(=O)[C@H]([C@@H](C)O)NC(=O)[C@H](CCCNC(=N)N)NC(=O)[C@H](CCCCN)NC(=O)[C@H](C)NC(=O)[C@H](CO)NC1=O [Sample 29] (H-CEISAKRTCKKRTLRKNDRKKR-OH; disulfide 1-9; N-terminus and C-terminus assumed) | 1.6577 |  |  | high antitumor activity |  |
| EFEYFHPATFRLKKRTLRKNDRKKR [Sample 42] |  | 0.5145 | 0.4114 |  | high antitumor activity |
| CSCC[C@@H]1NC(=O)[C@@H]2CCCN2C(=O)[C@H](CCCNC(=N)N)NC(=O)[C@H](CCCCN)NC(=O)[C@H](CCC(=O)O)NC(=O)[C@H](Cc2ccc(O)cc2)NC(=O)[C@H](CO)NC(=O)[C@@H](N)CSSC[C@@H](C(=O)O)NC1=O [Sample 11, CSYEKRPMC] (H-CSYEKRPMC-OH; disulfide 1-9; N-terminus and C-terminus assumed) | 1.6741 |  |  | high antitumor activity |  |
| CC(C)C[C@H](NC(=O)[C@@H](NC(=O)[C@H](CCCNC(=N)N)NC(=O)[C@H](CCCCN)NC(=O)[C@H](CCCCN)NC(=O)[C@@H]1CSSC[C@H](N)C(=O)N[C@@H](CO)C(=O)N[C@@H](CO)C(=O)N[C@@H](C)C(=O)N[C@@H]([C@@H](C)O)C(=O)NCC(=O)N[C@@H](CCCCN)C(=O)N[C@@H](CO)C(=O)N1)[C@@H](C)O)C(=O)N[C@@H](CCCNC(=N)N)C(=O)N[C@@H](CCCCN)C(=O)N[C@@H](CC(N)=O)C(=O)N[C@@H](CC(=O)O)C(=O)N[C@@H](CCCNC(=N)N)C(=O)N[C@@H](CCCCN)C(=O)N[C@@H](CCCCN)C(=O)N[C@@H](CCCNC(=N)N)C(=O)O [Sample 23] (H-CSSATGKSCKKRTLRKNDRKKR-OH; disulfide 1-9; N-terminus and C-terminus assumed) |  | 0.4127 | 0.3841 |  | high antitumor activity |
| CC(C)C[C@H](NC(=O)[C@@H](NC(=O)[C@H](CCCNC(=N)N)NC(=O)[C@H](CCCCN)NC(=O)[C@H](CCCCN)NC(=O)[C@@H]1CSSC[C@H](N)C(=O)N[C@@H](CC(C)C)C(=O)N[C@@H](C)C(=O)N2CCC[C@H]2C(=O)N[C@@H](CO)C(=O)N2CCC[C@H]2C(=O)N[C@@H](CO)C(=O)N[C@@H](CCCCN)C(=O)N1)[C@@H](C)O)C(=O)N[C@@H](CCCNC(=N)N)C(=O)N[C@@H](CCCCN)C(=O)N[C@@H](CC(N)=O)C(=O)N[C@@H](CC(=O)O)C(=O)N[C@@H](CCCNC(=N)N)C(=O)N[C@@H](CCCCN)C(=O)N[C@@H](CCCCN)C(=O)N[C@@H](CCCNC(=N)N)C(=O)O [Sample 24] (H-CLAPSPSKCKKRTLRKNDRKKR-OH; disulfide 1-9; N-terminus and C-terminus assumed) | 1.5820 | 0.3492 | 0.3198 | high antitumor activity | high antitumor activity |
| NMTTYPMHNNTVKKRTLRKNDRKKR [Sample 40] | 1.5890 |  |  | high antitumor activity |  |
| GPHHYWYHLRLPKKRTLRKNDRKKR [Sample 38] |  | 0.4605 | 0.3592 |  | high antitumor activity |
| CC(C)C[C@H](NC(=O)[C@@H](NC(=O)[C@H](CCCNC(=N)N)NC(=O)[C@H](CCCCN)NC(=O)[C@H](CCCCN)NC(=O)[C@@H]1CSSC[C@H](N)C(=O)NCC(=O)N[C@@H](Cc2c[nH]cn2)C(=O)N[C@@H](CCCNC(=N)N)C(=O)N2CCC[C@H]2C(=O)N[C@@H](Cc2ccc(O)cc2)C(=O)N[C@@H](CCC(N)=O)C(=O)N[C@@H](Cc2ccc(O)cc2)C(=O)N1)[C@@H](C)O)C(=O)N[C@@H](CCCNC(=N)N)C(=O)N[C@@H](CCCCN)C(=O)N[C@@H](CC(N)=O)C(=O)N[C@@H](CC(=O)O)C(=O)N[C@@H](CCCNC(=N)N)C(=O)N[C@@H](CCCCN)C(=O)N[C@@H](CCCCN)C(=O)N[C@@H](CCCNC(=N)N)C(=O)O [Sample 26] (H-CGHRPYQYCKKRTLRKNDRKKR-OH; disulfide 1-9; N-terminus and C-terminus assumed) |  | 0.4550 | 0.3643 |  | high antitumor activity |
| NMTTYPMHNNTV [Sample 18, NMTTYPMHNNTV] | 1.6767 | 0.6054 | 0.5999 |  |  |
| CC[C@H](C)[C@@H]1NC(=O)[C@H](Cc2c[nH]cn2)NC(=O)[C@@H](N)CSSC[C@@H](C(=O)O)NC(=O)[C@H](C)NC(=O)[C@H](CCC(N)=O)NC(=O)[C@H](C)NC(=O)[C@H](Cc2c[nH]cn2)NC(=O)[C@H](CC(C)C)NC1=O [Sample 8, CHILHAQAC] (H-CHILHAQAC-OH; disulfide 1-9; N-terminus and C-terminus assumed) | 1.7885 |  |  |  |  |
| GAVTYSRISGQY [Sample 22, GAVTYSRISGQY] | 1.9711 |  |  |  |  |
| TPSLPPTMFRLT [Sample 15, TPSLPPTMFRLT] | 1.6022 |  |  |  |  |
| GPHLGMNQRRRPKKRTLRKNDRKKR [Sample 43] |  | 0.4784 | 0.4110 |  | high antitumor activity |
| QSPVNHHYHYHI [Sample 17, QSPVNHHYHYHI] | 1.9428 | 0.6019 | 0.5818 |  |  |
